From ChEMBL document CHEMBL1201862, “PubChem BioAssay data set” (2004)
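Exposure lasted 48 hours, with cells grown in 96-well plates and compounds tested at five concentrations. At the GI50, growth is halved.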 Active and inactive are the calls of the source. Cut-off read from the data, not from the text of the source: active = GI50 up to about 1.1 µM and inactive = higher.

Columns and labels:
Assay in all cases: NCI-60 cell line screen, 48 h
MOLT-4 = tested on: MOLT-4
HCT-15 = tested on: HCT-15
RXF 393 = tested on: RXF 393
COLO 205 = tested on: COLO 205
LOX IMVI = tested on: LOX IMVI
SK-MEL-5 = tested on: SK-MEL-5
SF-268 = tested on: SF-268
SNB-75 = tested on: SNB-75
SN12C = tested on: SN12C
CAKI-1 = tested on: CAKI-1
SK-OV-3 = tested on: SK-OV-3
HOP-92 = tested on: HOP-92
KM12 = tested on: KM12
SK-MEL-2 = tested on: SK-MEL-2
Malme-3M = tested on: Malme-3M
EKVX = tested on: EKVX

| Compound | GI50 (MOLT-4) | GI50 (HCT-15) [µM] | GI50 (RXF 393) | GI50 (COLO 205) | GI50 (LOX IMVI) | GI50 (SK-MEL-5) | GI50 (SF-268) | GI50 (SNB-75) | GI50 (SN12C) | GI50 (CAKI-1) | GI50 (SK-OV-3) | GI50 (HOP-92) | GI50 (KM12) | GI50 (SK-MEL-2) | GI50 (Malme-3M) | GI50 (EKVX) |
| --- | --- | --- | --- | --- | --- | --- | --- | --- | --- | --- | --- | --- | --- | --- | --- | --- |
| CC(=O)O/N=C/c1ncccc1CO | > 100 µM (inactive) | > 100 | > 100 µM (inactive) | > 100 µM (inactive) | > 100 µM (inactive) | > 100 µM (inactive) | > 100 µM (inactive) | > 100 µM (inactive) | > 100 µM (inactive) | > 100 µM (inactive) | > 100 µM (inactive) | > 100 µM (inactive) | > 100 µM (inactive) | > 100 µM (inactive) | > 100 µM (inactive) | > 100 µM (inactive) |
| O=[N+]([O-])c1ccccc1/C=N/C12CC3CC(CC(C3)C1)C2 | 34 µM (inactive) | 42.1 | > 100 µM (inactive) | > 100 µM (inactive) | 47.4 µM (inactive) | 61.4 µM (inactive) | > 100 µM (inactive) | 65 µM (inactive) | > 100 µM (inactive) | 49.5 µM (inactive) | > 100 µM (inactive) | 72.8 µM (inactive) | 37.3 µM (inactive) | 65.8 µM (inactive) | 66.1 µM (inactive) | > 100 µM (inactive) |
| O=C(N/C(=C\c1ccc(/C=C(\NC(=O)c2ccccc2)c2nc3c(O)nc(S)nc3[nH]2)cc1)c1nc2c(O)nc(S)nc2[nH]1)c1ccccc1 | 43 µM (inactive) | > 100 | 38.6 µM (inactive) | > 100 µM (inactive) | 38 µM (inactive) | 64.4 µM (inactive) | 57.9 µM (inactive) | 26.4 µM (inactive) | > 100 µM (inactive) | > 100 µM (inactive) | > 100 µM (inactive) | > 100 µM (inactive) | > 100 µM (inactive) | 8.71 µM (inactive) | > 100 µM (inactive) | > 100 µM (inactive) |
| C=C(Br)C(C)(Cl)CCC(Br)C(C)(C)Br (centres undefined) | 31 µM (inactive) | 67 | 22.4 µM (inactive) | 57 µM (inactive) | 16.6 µM (inactive) | 65.3 µM (inactive) | – | 46 µM (inactive) | > 100 µM (inactive) | > 100 µM (inactive) | > 100 µM (inactive) | 32.7 µM (inactive) | 99.1 µM (inactive) | 29.2 µM (inactive) | 69 µM (inactive) | – |
| CN(C)C(=O)c1ccc([N+](=O)[O-])cc1 | > 100 µM (inactive) | > 100 | > 100 µM (inactive) | > 100 µM (inactive) | > 100 µM (inactive) | > 100 µM (inactive) | > 100 µM (inactive) | > 100 µM (inactive) | > 100 µM (inactive) | > 100 µM (inactive) | > 100 µM (inactive) | > 100 µM (inactive) | > 100 µM (inactive) | > 100 µM (inactive) | > 100 µM (inactive) | > 100 µM (inactive) |
| Nc1nc2c3c(ncn3CC(O)CO2)n1 (centres undefined) | > 100 µM (inactive) | > 100 | > 100 µM (inactive) | > 100 µM (inactive) | > 100 µM (inactive) | > 100 µM (inactive) | > 100 µM (inactive) | 10.8 µM (inactive) | > 100 µM (inactive) | > 100 µM (inactive) | > 100 µM (inactive) | > 100 µM (inactive) | > 100 µM (inactive) | > 100 µM (inactive) | > 100 µM (inactive) | – |
| O/N=C1/CCC/C1=C\c1ccccc1 | 42.6 µM (inactive) | > 100 | 96.6 µM (inactive) | > 100 µM (inactive) | > 100 µM (inactive) | > 100 µM (inactive) | > 100 µM (inactive) | 18.5 µM (inactive) | > 100 µM (inactive) | > 100 µM (inactive) | > 100 µM (inactive) | > 100 µM (inactive) | > 100 µM (inactive) | > 100 µM (inactive) | > 100 µM (inactive) | 21.9 µM (inactive) |
